This is an account of results in patent publication US20250051344A1, “BIFUNCTIONAL SELECTIVE DEGRADERS OF SMARCA2 AND THERAPEUTIC USES THEREOF” (Nurix Therapeutics, Inc., priority 2023, published 2025).

The target of one assay is T1, SMARCA2 (Homo sapiens, UniProt P51531).
T1 construct: endogenous in cells
As to the kind of experiment: SMARCA2 Cellular Degradation Assay (Western blot analysis on Jess platform). Format: cell-based. As to conditions: for DC50 / Dmax: cellular degradation; for Fold Selectivity SMARCA4/2: ratio DC50 SMARCA4 / DC50 SMARCA2. Put shortly: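 Tumor-derived cell pellets (5×10E5-1×10E6 live cells) lysed in RIPA + 0.2% SDS, phosphatase/protease inhibitors, benzonase; 5 μg protein/capillary on Jess; chemiluminescence/fluorescence immunoassay; SMARCA2/actin peak area, % of vehicle.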

The next assay has as its target T2, SMARCA4 (Homo sapiens, UniProt P51532).
T2 construct: endogenous in cells
Put plainly: Cellular degradation assay, SMARCA4 (Table 1). Format: cell-based.

T1 sequence (P51531 whole entry, species assumed): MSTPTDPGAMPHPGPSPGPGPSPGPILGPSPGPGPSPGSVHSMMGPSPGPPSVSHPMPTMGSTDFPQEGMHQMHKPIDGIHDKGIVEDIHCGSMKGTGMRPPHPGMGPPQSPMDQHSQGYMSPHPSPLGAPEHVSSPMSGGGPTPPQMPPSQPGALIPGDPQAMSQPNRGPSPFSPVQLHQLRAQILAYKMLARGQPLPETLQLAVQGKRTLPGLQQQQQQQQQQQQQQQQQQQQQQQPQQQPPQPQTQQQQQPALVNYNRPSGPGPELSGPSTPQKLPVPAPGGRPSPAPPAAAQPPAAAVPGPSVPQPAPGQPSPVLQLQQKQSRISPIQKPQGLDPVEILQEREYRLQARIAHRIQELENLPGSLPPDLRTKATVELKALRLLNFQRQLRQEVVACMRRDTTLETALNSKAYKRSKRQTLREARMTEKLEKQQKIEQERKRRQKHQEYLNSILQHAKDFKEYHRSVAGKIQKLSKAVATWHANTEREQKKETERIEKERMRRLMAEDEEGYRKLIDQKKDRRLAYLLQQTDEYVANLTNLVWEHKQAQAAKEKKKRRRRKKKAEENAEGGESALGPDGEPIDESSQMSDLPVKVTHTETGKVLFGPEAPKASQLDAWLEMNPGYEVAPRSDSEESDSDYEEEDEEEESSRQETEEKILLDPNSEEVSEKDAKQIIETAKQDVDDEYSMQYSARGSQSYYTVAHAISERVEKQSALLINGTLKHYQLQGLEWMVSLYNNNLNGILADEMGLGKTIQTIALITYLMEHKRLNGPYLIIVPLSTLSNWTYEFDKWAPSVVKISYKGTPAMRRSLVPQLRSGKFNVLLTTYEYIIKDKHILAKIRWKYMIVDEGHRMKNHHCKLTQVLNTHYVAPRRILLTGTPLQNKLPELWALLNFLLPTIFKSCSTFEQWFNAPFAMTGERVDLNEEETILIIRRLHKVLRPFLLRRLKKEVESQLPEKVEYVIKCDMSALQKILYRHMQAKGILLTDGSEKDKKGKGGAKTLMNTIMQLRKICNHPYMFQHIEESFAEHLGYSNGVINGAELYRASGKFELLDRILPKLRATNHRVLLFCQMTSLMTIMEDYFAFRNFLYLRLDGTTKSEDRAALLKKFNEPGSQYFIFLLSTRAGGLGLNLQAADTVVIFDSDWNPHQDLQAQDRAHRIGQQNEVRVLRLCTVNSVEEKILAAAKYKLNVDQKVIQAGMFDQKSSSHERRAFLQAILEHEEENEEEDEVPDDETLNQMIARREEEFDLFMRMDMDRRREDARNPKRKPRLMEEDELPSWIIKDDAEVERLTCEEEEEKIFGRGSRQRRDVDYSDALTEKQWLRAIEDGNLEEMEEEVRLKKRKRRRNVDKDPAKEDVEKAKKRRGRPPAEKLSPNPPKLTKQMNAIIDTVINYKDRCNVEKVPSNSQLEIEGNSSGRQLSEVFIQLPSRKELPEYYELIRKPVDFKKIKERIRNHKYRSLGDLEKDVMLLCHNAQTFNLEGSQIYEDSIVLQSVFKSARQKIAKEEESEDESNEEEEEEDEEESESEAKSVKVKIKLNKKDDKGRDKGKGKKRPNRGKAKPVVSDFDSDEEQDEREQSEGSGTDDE
T2 sequence (P51532 whole entry, species assumed): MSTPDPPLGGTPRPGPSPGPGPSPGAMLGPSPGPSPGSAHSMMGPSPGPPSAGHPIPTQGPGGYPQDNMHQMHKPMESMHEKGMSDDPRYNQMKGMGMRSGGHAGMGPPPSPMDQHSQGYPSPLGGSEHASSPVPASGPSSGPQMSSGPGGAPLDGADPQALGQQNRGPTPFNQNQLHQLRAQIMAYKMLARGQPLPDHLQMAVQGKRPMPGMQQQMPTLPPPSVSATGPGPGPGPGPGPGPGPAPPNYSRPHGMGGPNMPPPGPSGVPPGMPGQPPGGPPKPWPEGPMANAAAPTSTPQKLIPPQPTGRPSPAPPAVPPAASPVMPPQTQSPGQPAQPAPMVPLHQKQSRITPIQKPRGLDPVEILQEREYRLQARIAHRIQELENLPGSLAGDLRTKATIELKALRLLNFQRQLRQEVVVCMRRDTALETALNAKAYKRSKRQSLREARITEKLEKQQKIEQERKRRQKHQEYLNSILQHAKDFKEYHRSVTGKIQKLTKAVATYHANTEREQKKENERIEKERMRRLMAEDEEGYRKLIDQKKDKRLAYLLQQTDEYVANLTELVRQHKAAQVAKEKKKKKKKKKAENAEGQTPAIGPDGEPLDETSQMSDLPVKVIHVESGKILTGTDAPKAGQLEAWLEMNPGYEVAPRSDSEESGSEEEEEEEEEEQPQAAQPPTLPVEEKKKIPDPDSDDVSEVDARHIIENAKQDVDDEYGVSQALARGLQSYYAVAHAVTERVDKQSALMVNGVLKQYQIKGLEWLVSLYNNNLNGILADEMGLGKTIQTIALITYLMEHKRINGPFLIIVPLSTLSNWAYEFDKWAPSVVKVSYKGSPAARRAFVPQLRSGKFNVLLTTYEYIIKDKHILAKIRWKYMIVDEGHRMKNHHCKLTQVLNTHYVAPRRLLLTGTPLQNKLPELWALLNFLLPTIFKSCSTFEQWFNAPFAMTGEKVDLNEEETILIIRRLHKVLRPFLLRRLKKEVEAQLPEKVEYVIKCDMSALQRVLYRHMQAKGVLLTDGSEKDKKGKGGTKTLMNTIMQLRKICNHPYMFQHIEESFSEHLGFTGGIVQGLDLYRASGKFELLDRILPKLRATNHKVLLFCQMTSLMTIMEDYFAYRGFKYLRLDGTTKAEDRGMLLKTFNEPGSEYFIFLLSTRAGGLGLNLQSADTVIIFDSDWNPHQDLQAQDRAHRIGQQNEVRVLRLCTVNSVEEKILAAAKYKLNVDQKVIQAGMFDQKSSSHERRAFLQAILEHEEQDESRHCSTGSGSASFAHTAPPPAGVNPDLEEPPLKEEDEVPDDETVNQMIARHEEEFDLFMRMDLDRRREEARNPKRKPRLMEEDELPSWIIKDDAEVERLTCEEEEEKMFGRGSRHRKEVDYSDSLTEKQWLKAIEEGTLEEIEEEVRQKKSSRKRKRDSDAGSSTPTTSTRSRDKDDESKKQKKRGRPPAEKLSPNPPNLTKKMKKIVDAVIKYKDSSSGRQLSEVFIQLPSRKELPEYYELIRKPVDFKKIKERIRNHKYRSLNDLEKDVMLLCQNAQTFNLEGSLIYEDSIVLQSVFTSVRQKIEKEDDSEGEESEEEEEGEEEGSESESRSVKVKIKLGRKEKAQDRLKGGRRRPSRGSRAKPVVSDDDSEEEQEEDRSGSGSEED

Consider `COC1(C(=O)N(C)C2CCN(CCC3CCN(c4ccc(C5CCC(=O)NC5=O)c(F)c4)CC3)CC2)CCN(c2cnnc(-c3ccccc3O)c2)CC1` (racemic) [Example 71, rac-N-(1-(2-(1-(4-(2,6-dioxopiperidin-3-yl)-3-fluorophenyl)piperidin-4-yl)ethyl)piperidin-4-yl)-1-(6-(2-hydroxyphenyl)pyridazin-4-yl)-4-methoxy-n-methylpiperidine-4-carboxamide], for which, on SMARCA2, the DC50 (commonly the concentration giving 50% degradation) stood at 8.07 nM, the Dmax (commonly the largest share of the target that was removed) was determined as 81.6% and the “Fold Selectivity SMARCA4/2” value was 1239. Besides, the Dmax on SMARCA4 stood at 32.2%.
Consider `O=C1CCC(c2ccc(N3CCC(CCN4CC5(CCCN(C(=O)C6(c7ccccc7)CCN(c7cnnc(-c8ccccc8O)c7)CC6)C5)C4)CC3)cc2)C(=O)N1` (racemic) [Example 167, rac-(3R)-3-(4-{4-[2-(6-{1-[6-(2-hydroxyphenyl)pyridazin-4-yl]-4-phenylpiperidine-4-carbonyl}-2,6-diazaspiro[3.5]nonan-2-yl)ethyl]piperidin-1-yl}phenyl)piperidine-2,6-dione], for which, on SMARCA2, half-maximal degradation (DC50) was put at 40.1 nM, the Dmax was 67.5% and the “Fold Selectivity SMARCA4/2” value was determined as 16. On SMARCA4, it took 659 nM to reach half-maximal degradation (DC50) and the Dmax was 23.7%.
On the same counts, the results for `CN(CC1(c2ccccc2)CCN(c2cnnc(-c3ccccc3O)c2)CC1)C1CCN(C(=O)CN2CCC(c3ccc(C4CCC(=O)NC4=O)cc3)CC2)CC1` (racemic) [Example 143, rac-(r)-3-(4-(1-(2-(4-(((1-(6-(2-hydroxyphenyl)pyridazin-4-yl)-4-phenylpiperidin-4-yl)methyl)(methyl)amino)piperidin-1-yl)-2-oxoethyl)piperidin-4-yl)phenyl)piperidine-2,6-dione] are 13.3 nM, 86.5%, 12, 161 nM and 66.7%.
As to `O=C1CCC(c2ccc(N3CCOC4(CCN(CC(=O)N5CCC6(CC5)CN(C(=O)C5(c7ccccc7)CCN(c7cnnc(-c8ccccc8O)c7)CC5)C6)CC4)C3)cc2)C(=O)N1` (racemic) [Example 152, rac-(3R)-3-(4-{9-[2-(2-{1-[6-(2-hydroxyphenyl)pyridazin-4-yl]-4-phenylpiperidine-4-carbonyl}-2,7-diazaspiro[3.5]nonan-7-yl)-2-oxoethyl]-1-oxa-4,9-diazaspiro[5.5]undecan-4-yl}phenyl)piperidine-2,6-dione], at SMARCA2, it took 68.2 nM to reach half-maximal degradation (DC50), the Dmax turned out to be 66.5% and the “Fold Selectivity SMARCA4/2” value stood at 147. Besides, the Dmax at SMARCA4 worked out at 45.4%.
Taken in the same sequence, the figures for `CC1(C(=O)N2CC3(CN(CC4CCN(c5ccc([C@H]6CCC(=O)NC6=O)cc5)CC4)C3)C2)CCN(c2cnnc(-c3ccccc3O)c2)CC1` [Example 23, (3R)-3-(4-{4-[(6-{1-[6-(2-hydroxyphenyl)pyridazin-4-yl]-4-methylpiperidine-4-carbonyl}-2,6-diazaspiro[3.3]heptan-2-yl)methyl]piperidin-1-yl}phenyl)piperidine-2,6-dione] were 78.5 nM, 55.9%, 127.44 and 39.1%.
`O=C1CCC(c2ccc(OCC3CCN(C(=O)C4CCN(C(=O)C5(c6ccccc6)CCN(c6cnnc(-c7ccccc7O)c6)CC5)CC4)CC3)cc2)C(=O)N1` (racemic) [Example 14, rac-(3R)-3-(4-{[1-(1-{1-[6-(2-hydroxyphenyl)pyridazin-4-yl]-4-phenylpiperidine-4-carbonyl}piperidine-4-carbonyl)piperidin-4-yl]methoxy}phenyl)piperidine-2,6-dione]: on SMARCA2, the Dmax amounted to 22.2% and the “Fold Selectivity SMARCA4/2” value is 1. This molecule had a Dmax on SMARCA4 of 15.2%.
Turning to `O=C1CC[C@H](c2ccc(N3CCC(CCN4CCC[C@@H]4C(=O)NCC4(c5ccccc5)CCN(c5cnnc(-c6ccccc6O)c5)CC4)CC3)cc2)C(=O)N1` (racemic) [Example 107, (r)-1-(2-(1-(4-((rs)-2,6-dioxopiperidin-3-yl)phenyl)piperidin-4-yl)ethyl)-n-((1-(6-(2-hydroxyphenyl)pyridazin-4-yl)-4-phenylpiperidin-4-yl)methyl)pyrrolidine-2-carboxamide], on SMARCA2, the DC50 turned out to be 41.3 nM, the Dmax came out at 58.8% and the “Fold Selectivity SMARCA4/2” value was 242. Besides, the Dmax at SMARCA4 was found to be 29.4%.
Consider `O=C1CCC(c2ccc(OCC3CCN(CC4CCN(C(=O)C5(c6ccccc6)CCN(c6cnnc(-c7ccccc7O)c6)CC5)CC4)CC3)cc2)C(=O)N1` (racemic) [Example 11, rac-(3R)-3-[4-({1-[(1-{1-[6-(2-hydroxyphenyl)pyridazin-4-yl]-4-phenylpiperidine-4-carbonyl}piperidin-4-yl)methyl]piperidin-4-yl}methoxy)phenyl]piperidine-2,6-dione], for which, at SMARCA2, half-maximal degradation (DC50) was put at 21.2 nM, the Dmax was 69.1% and the “Fold Selectivity SMARCA4/2” value was 472.68. This molecule registered a Dmax on SMARCA4 of 38.9%.
Turning to `CN(C(=O)C1(Oc2ccccc2)CCN(c2cnnc(-c3ccccc3O)c2)CC1)C1CCN(CC2CCN(c3ccc([C@H]4CCC(=O)NC4=O)cc3)CC2)C2(CC2)C1` (mixture of isomers) [Example 168, N-[(7RS)-4-[(1-{4-[(3R)-2,6-dioxopiperidin-3-yl]phenyl}piperidin-4-yl)methyl]-4-azaspiro[2.5]octan-7-yl]-1-[6-(2-hydroxyphenyl)pyridazin-4-yl]-N-methyl-4-phenoxypiperidine-4-carboxamide], on SMARCA2, it took 18.4 nM to reach half-maximal degradation (DC50), the Dmax is 90.6% and the “Fold Selectivity SMARCA4/2” value is 6. On SMARCA4, it took 113 nM to reach half-maximal degradation (DC50) and the maximal degradation (Dmax) came out at 77.3%.
Consider `COc1cccc(C2(C(=O)N(C)C3CCN(CCC4CCN(c5ccc([C@H]6CCC(=O)NC6=O)cc5)CC4)CC3)CCN(c3cnnc(-c4ccccc4O)c3)CC2)c1` [Example 139, N-{1-[2-(1-{4-[(3R)-2,6-dioxopiperidin-3-yl]phenyl}piperidin-4-yl)ethyl]piperidin-4-yl}-1-[6-(2-hydroxyphenyl)pyridazin-4-yl]-4-(3-methoxyphenyl)-N-methylpiperidine-4-carboxamide], for which, on SMARCA2, the DC50 was found to be 4.55 nM, the Dmax worked out at 89.2% and the “Fold Selectivity SMARCA4/2” value turned out to be 37. At SMARCA4, it took 167 nM to reach half-maximal degradation (DC50) and the Dmax stood at 54%.
With `CCN(C(=O)C1(c2ccccc2)CCN(c2cnnc(-c3ccccc3O)c2)CC1)C1CCN(CCC2CCN(c3ccc([C@H]4CCC(=O)NC4=O)cc3)CC2)CC1` [Example 187, N-{1-[2-(1-{4-[(3R)-2,6-dioxopiperidin-3-yl]phenyl}piperidin-4-yl)ethyl]piperidin-4-yl}-n-ethyl-1-[6-(2-hydroxyphenyl)pyridazin-4-yl]-4-phenylpiperidine-4-carboxamide], on SMARCA2, the DC50 was 1.3 nM, the Dmax was 94.4% and the “Fold Selectivity SMARCA4/2” value turned out to be 27. At SMARCA4, this molecule registered a DC50 of 34.5 nM and a Dmax of 73.1%.
Consider `Cc1cc(C2(C(=O)N(C)C3CCN(CCC4CCN(c5ccc(C6CCC(=O)NC6=O)cc5)CC4)CC3)CCN(c3cnnc(-c4ccccc4O)c3)CC2)on1` (racemic) [Example 88, rac-N-{1-[2-(1-{4-[(3R)-2,6-dioxopiperidin-3-yl]phenyl}piperidin-4-yl)ethyl]piperidin-4-yl}-1-[6-(2-hydroxyphenyl)pyridazin-4-yl]-N-methyl-4-(3-methyl-1,2-oxazol-5-yl)piperidine-4-carboxamide], for which, at SMARCA2, the DC50 came out at 7.76 nM, the Dmax amounted to 78.4% and the “Fold Selectivity SMARCA4/2” value was determined as 1289. Also, the Dmax on SMARCA4 amounted to 20.2%.
As to `O=C1CC[C@H](c2ccc(N3CCC(CN4CCC5(CC4)CN(C(=O)C4(c6ccccc6)CCN(c6cnnc(-c7ccccc7O)c6)CC4)C5)CC3)cc2)C(=O)N1` [Example 194, (3R)-3-(4-{4-[(2-{1-[6-(2-hydroxyphenyl)pyridazin-4-yl]-4-phenylpiperidine-4-carbonyl}-2,7-diazaspiro[3.5]nonan-7-yl)methyl]piperidin-1-yl}phenyl)piperidine-2,6-dione], at SMARCA2, the DC50 was 3.24 nM, the Dmax was found to be 88.1% and the “Fold Selectivity SMARCA4/2” value is on record as 10. Besides, on SMARCA4, half-maximal degradation (DC50) was put at 31.3 nM and the greatest degradation seen (Dmax) worked out at 70.3%.
On the same counts, the results for `O=C1CCC(c2ccc(N3CCC(CN4CC5(C4)CN(C(=O)C4(c6cccc(Cl)c6)CCN(c6cnnc(-c7ccccc7O)c6)CC4)C5)CC3)cc2)C(=O)N1` (racemic) [Example 27, rac-(3R)-3-{4-[4-({6-[4-(3-chlorophenyl)-1-[6-(2-hydroxyphenyl)pyridazin-4-yl]piperidine-4-carbonyl]-2,6-diazaspiro[3.3]heptan-2-yl}methyl)piperidin-1-yl]phenyl}piperidine-2,6-dione] are 18.2 nM, 72.8%, 7.24, 132 nM and 56.5%.
On the same counts, the results for `O=C1CCC(c2c(F)cc(N3CCC(CN4CCC5(CC4)CN(C(=O)C4(Oc6ccccc6)CCN(c6cnnc(-c7ccccc7O)c6)CC4)C5)CC3)cc2F)C(=O)N1` (racemic) [Example 136, rac-(3R)-3-(2,6-difluoro-4-{4-[(2-{1-[6-(2-hydroxyphenyl)pyridazin-4-yl]-4-phenoxypiperidine-4-carbonyl}-2,7-diazaspiro[3.5]nonan-7-yl)methyl]piperidin-1-yl}phenyl)piperidine-2,6-dione] are 2.1 nM, 94%, 8, 17.8 nM and 84.2%.
